Data reported in patent US12303474B2, “S-enantiomerically enriched compositions of beta blockers for treating amyotrophic lateral sclerosis” (priority 2013, dated 2025).
Where two headings read alike, the source gives them in different places.

What was measured:
[1] = tested on: G93A SOD1 B6SJL hybrid (G93A) model; assay: Body weight and body composition (lean mass, fat mass; NMR scans) in G93A SOD1 transgenic mice; type: in vivo; settings: 20 mg/kg/d; for Average Δ fat mass / Average Δ lean mass / Average Δ body weight: per day alive after disease onset
Source text: (§1) Transgenic mice over-expressing a high copy number (25 copies) of mutated human SOD1 gene with a G93A point mutation, i.e., B6SJL-TgN [SOD1-G93A]1 Gur (G1H-G93A transgenic mice, JR2726; Hemizygote) (Gurney M E, et al., Science, 264, 1772-1775, 1994) (“G93A SOD1 B6SJL hybrid (G93A) model”), were used.
[…] […] There were 16 mice in the S-oxprenolol group.
The primary endpoint was survival, humanely defined as the ability of the animal to right itself in 30 seconds after being laid on its side. Secondary endpoints were body weight, body composition, spontaneous activity and food intake. Body weight of the animals was assessed weekly until onset of disease. Additionally, body composition (fat mass and lean body mass) was assessed using NMR scans (EchoMRI-100, Echo Medical Systems, Houston, USA) every 4 days. After onset of disease, body weight and body composition were assessed every two days until the end of the study. All personal handling the animals was strictly blinded to the randomized treatment allocation.
To study the effect of S-oxprenolol on body weight, body weight was monitored over time.
To study the effect of the test compounds on lean body mass, lean mass was determined at the end of the study.
To study the effect of the test compounds on fat mass, the fat mass were determined at the end of the study.
To study the effect of S-oxprenolol on body weight, body weight was monitored over time. […] The number of all mice in the population is indicated as “n” in at the bottom of FIGS. 20A-20C.
To study the effect of the test compounds on lean body mass, lean mass was determined at the end of the study. […] The number of all mice in the population is indicated as “n” in at the bottom of FIGS. 20D-20F.
To study the effect of the test compounds on fat mass, the fat mass were determined at the end of the study. […] The number of all mice in the population is indicated as “n” in at the bottom of FIGS. 20G-20I.

[2] = tested on: G93A SOD1 B6SJL hybrid (G93A) model; assay: Disease progression score (JAX SOP) in G93A SOD1 transgenic mice; settings: 20 mg/kg/day vs. placebo
Source text: The disease progression score is based on the JAX SOP (Ludolph A C, Bendotti C, Blaugrund E, Hengerer B, Loffler J P, Martin J, Meininger V, Meyer T, Moussaoui S, Robberecht W, Scott S, Silani V, Van Den Berg L H (ENMC Group For The Establishment Of Guidelines For The Conduct Of Preclinical And Proof Of Concept Studies In ALS/MND Models). 2007, which is incorporated by reference).

[3] = tested on: G93A SOD1 B6SJL hybrid (G93A) model; settings: 20 mg/kg/day vs. placebo;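 as to HR survival (FIG. 14): dosing began after ALS onset in G93A SOD1 mice, with survival as the endpoint, defined humanely as the animal failing to regain upright posture within 30 s when placed sideways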;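 as to HR survival (FIG. 16): dosing began after ALS onset in G93A SOD1 mice, with survival as the endpoint, defined humanely as the animal failing to regain upright posture within 30 s when placed sideways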
Source text: To study the effect of S-oxprenolol on survival, survival was monitored over time.

[4] = tested on: G93A SOD1 B6SJL hybrid (G93A) model; settings: 20 mg/kg/d; for Heart / gastrocnemius: end of study;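 as to HR survival (FIG. 14): dosing began after ALS onset in G93A SOD1 mice, with survival as the endpoint, defined humanely as the animal failing to regain upright posture within 30 s when placed sideways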;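 as to HR survival (FIG. 16): dosing began after ALS onset in G93A SOD1 mice, with survival as the endpoint, defined humanely as the animal failing to regain upright posture within 30 s when placed sideways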
Experimental: as §1
To study the effect of the test compounds on skeletal muscle atrophy, the skeletal muscle mass were determined at the end of the study.
The number of all mice in the population is indicated as “n” in at the bottom of FIGS. 21A-21C.
The number of all mice in the population is indicated as “n” in at the bottom of FIGS. 20D-20F.
The number of all mice in the population is indicated as “n” in at the bottom of FIGS. 21G-21I.

With C=CCOc1ccccc1OCC(O)CNC(C)C (racemic) [oxprenolol, 1-[2-(allyloxy)phenoxy]-3-(isopropylamino)propan-2-ol] the Δ body weight ([1]; all mice) was -5.59 ± 0.48 g, the Δ fat mass ([1]; all mice) was -1.49 ± 0.12 g and the Δ lean mass ([1]; all mice) was -4.67 ± 0.42 g. The “Average Δ fat mass” value ([1]; all mice) was -33.1 ± 2.6 mg/day, the “Average Δ lean mass” value ([1]; all mice) was -102.0 ± 10.7 mg/day and the Δ body weight ([1]; female mice) was -5.27 ± 0.61 g. The Δ fat mass ([1]; female mice) was -1.64 ± 0.21 g, the Δ lean mass ([1]; female mice) was -3.76 ± 0.42 g and the “Average Δ body weight” value ([1]; female mice) was -122.5 ± 14.7 mg/day. For the same compound, the “Average Δ fat mass” value ([1]; female mice) was -37.5 ± 3.7 mg/day, the “Average Δ lean mass” value ([1]; female mice) was -85.8 ± 11.6 mg/day and the Δ body weight ([1]; male mice) was -5.94 ± 0.77 g. The Δ fat mass ([1]; male mice) was -1.33 ± 0.13 g, the Δ lean mass ([1]; male mice) was -5.64 ± 0.68 g and the “Average Δ body weight” value ([1]; male mice) was -124.8 ± 20.7 mg/day. For the same compound, the “Average Δ fat mass” value ([1]; male mice) was -28.3 ± 3.1 mg/day, the “Average Δ lean mass” value ([1]; male mice) was -119.4 ± 17.7 mg/day and the “HR Progression from score 1 to score 2 (FIG. 17)” value [2] was 0.60. The “HR Progression from score 1 to score 3 (FIG. 19)” value [2] was 0.60, the “HR Progression from score 2 to score 3 (FIG. 18)” value [2] was 0.77 and the “HR survival (FIG. 14)” value ([3]; all mice) was 0.66. For the same compound, the “HR survival (FIG. 16)” value ([3]; female mice) was 1.03, the “HR survival (FIG. 15)” value ([3]; male mice) was 0.38 and the “BAT (brown adipose tissue)” value ([4]; all mice) was 40.6 ± 2.8 mg. The “EDL (extensor digitorum longus)” value ([4]; all mice) was 7.24 ± 0.41 mg, the soleus ([4]; all mice) was 4.99 ± 0.36 mg and the Heart ([4]; all mice) was 100.2 ± 3.2 mg. For the same compound, the gastrocnemius ([4]; all mice) was 52.2 ± 2.3 mg, the “BAT (brown adipose tissue)” value ([4]; female mice) was 35.2 ± 4.1 mg and the “EDL (extensor digitorum longus)” value ([4]; female mice) was 6.97 ± 0.36 mg. It also gave a soleus ([4]; female mice) of 4.76 ± 0.52 mg, a Heart ([4]; female mice) of 89.5 ± 2.4 mg and a gastrocnemius ([4]; female mice) of 49.5 ± 2.1 mg. For the same compound, the “BAT (brown adipose tissue)” value ([4]; male mice) was 45.7 ± 3.6 mg, the “EDL (extensor digitorum longus)” value ([4]; male mice) was 7.49 ± 0.72 mg and the soleus ([4]; male mice) was 5.21 ± 0.51 mg. The Heart ([4]; male mice) was 110.2 ± 2.9 mg and the gastrocnemius ([4]; male mice) was 54.7 ± 3.9 mg.
